The test system of one experiment is mCherry–KANK1. Put plainly: MTS colocalization of truncated or mutated talin constructs with KANK1. It is filed as cell-based, human. The conditions noted are these: MTS colocalization assay, cBAK-tagged talin constructs. The source says: To examine the effect of these KANK1 mutations on talin interactions in cells, we next used a mitochondrial targeting system (MTS) which we previously used to screen for defined protein–protein interactions. In this assay, one protein is fused to a small peptide sequence from the pro-apoptotic protein BAK (cBAK) which leads to its insertion into the outer membrane of mitochondria. Proteins that interact with the cBAK-tagged protein will get recruited to mitochondria, and this recruitment can be verified either by visualizing colocalization using fluorescence microscopy (figure 4a) or by purification of mitochondria followed by detection of co-precipitates using biochemistry (figure 4b,c). […] To confirm that the interaction was meditated by the R7 domain, we performed the colocalization assays with truncated talin constructs. […]
(§1) Images of fixed samples in PBS were acquired at room temperature using an Olympus IX83 inverted microscope equipped with a 60×/1.42 PlanApo N oil objective and a QImaging Retiga R6 CCD camera, controlled by Metamorph software. Samples were illuminated using LEDs (UV/Cyan/Green-Yellow/Red, Lumencor) for fluorescence excitation; a Sedat filter set (DAPI/FITC/TRITC/Cy5, Chroma, 89000) was used.
Background: Tetrazolium assays rely on reduction of a dye to a coloured formazan, in cell work by metabolically active cells.

Experiment [1] relates to KANK1 localization to focal adhesions of NIH3T3 fibroblasts. Description: KANK1 localization in vin880-expressing cells treated with ROCK inhibitor. It counts as cell-based, mouse. Here is the method:
NIH3T3 mouse fibroblasts and HEK293T human epithelial cells were obtained from the American Type Culture Collection (ATCC). The vinculin null and WT mouse embryonic fibroblasts (MEFs) originate from the Eileen Adamson laboratory. All cells were maintained in Dulbecco's Modified Eagle Medium (DMEM; Sigma) supplemented with 10% fetal bovine serum (FBS, Gibco), 1% L-glutamine (Sigma) and 1% non-essential amino acids (Sigma). Talin1&2 null cells were cultured in DMEM F-12 (Gibco) supplemented with 10% FBS, 1% L-glutamine, 1% non-essential amino acids and […] HEPES (Sigma). All cells were cultured at 37̊C supplied with 5% CO2 and 95% humidity. Transient transfections were performed using Lipofectamine LTX with Plus Reagent (Invitrogen) to NIH3T3 cells, Lipofectamine 2000 (Invitrogen) to talin null cells, and jetPRIME reagent (Polyplus) to MEFs and HEK293T cells, as per the manufacturer's instructions.
For fixed cell imaging, cells were cultured in glass-bottom dishes (IBL) coated with bovine fibronectin (Sigma) at a final concentration of 10 µg ml^−1. […]
as §1
FIJI-ImageJ [33] software was used to process all images. Cell-matrix adhesion size was quantified as described previously, by subtracting background signal using a rolling ball algorithm, followed by thresholding to select adhesion structures and the Analyze Particles function to quantify adhesions. […] Pearson's correlation coefficient of fluorescence signals (40 × 40 µm^2 square adhesion area) was measured by subtracting the background signal, followed by automatic thresholding and colocalization analysis using the Bioimaging and Optics Platform (BIOP) version JACoP plugin [34]. […]

In the case of “GFP–talin1G1404L–cBAK: GFP–talin1–cBAK with the R7 G1404L mutation”, the “colocalization of talin construct with KANK1” value in the experiment with mCherry–KANK1 is “prevented colocalization”.
On to `C[C@@H](N)[C@H]1CC[C@H](C(=O)Nc2ccncc2)CC1` [Y-27632], for which the “KANK1 localization (in words)” value in experiment [1] (NIH3T3 cells expressing vin880 treated with Y-27632) was “KANK1 colocalized with paxillin in FAs throughout the whole FA structure”. Besides, the “Pearson's mean correlation coefficient of KANK1/paxillin overlap” value in experiment [1] (NIH3T3 with GFP–vin880 and mCherry–KANK1, Y-27632 50 µM, 60 min, 20 images (40 × 40 µm^2) per group, ± s.d., water control r = 0.59 ± 0.05, p < 0.001 (Welch's t-test)) is recorded as 0.82 ± 0.04. Moreover, in experiment [1] (NIH3T3 with GFP–vin880 and mCherry–KANK1, Y-27632 50 µM, 60 min, FAs over 0.3 µm^2, n = 17, ± s.d., water control 17.90 ± 3.27% (n = 28), p < 0.001 (Welch's t-test)), the “Percentage of belt-positive FAs” value is on record as 0.02 ± 0.10%.
